Laboratory results taken from PubChem BioAssay AID248 (DTP/NCI, 2004).
“And” between values parts separate entries of the source, which are not always exact repeats. Equal values may be shown once. Toxic doses and inconclusive results are not listed. Rule as the data show it: active = T/C of 150% or more; inactive = T/C below 125%.

System: L1210 leukemia ip in BDF1 mice, survival T/C
Experiment: NCI In Vivo Anticancer Drug Screen. Data for tumor model L1210 Leukemia (intraperitoneal) in B6D2F1 (BDF1) mice
Conditions: endpoint: mean survival time, higher = longer survival
Method in brief: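 Transplantable tumor model; survival measured in treated vs vehicle control mice. Value = treated/control.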

[1] = dose: 50.0 mg/kg/injection, schedule: Q01DX001 (ip), vehicle: saline
[2] = dose: 100.0 mg/kg/injection, schedule: Q01DX001 (ip), vehicle: saline
[3] = dose: 200.0 mg/kg/injection, schedule: Q01DX001 (ip), vehicle: saline
[4] = dose: 100.0 mg/kg/injection, schedule: Q01DX009 (ip), vehicle: saline with Tween-80
[5] = dose: 200.0 mg/kg/injection, schedule: Q01DX009 (ip), vehicle: saline with Tween-80
[6] = dose: 400.0 mg/kg/injection, schedule: Q01DX009 (ip), vehicle: saline with Tween-80
[7] = dose: 100.0 mg/kg/injection, schedule: Q04DX003 (ip), vehicle: Klucel (hydroxypropylcellulose) (HPC)
[8] = dose: 200.0 mg/kg/injection, schedule: Q04DX003 (ip), vehicle: Klucel (hydroxypropylcellulose) (HPC)
[9] = dose: 400.0 mg/kg/injection, schedule: Q04DX003 (ip), vehicle: Klucel (hydroxypropylcellulose) (HPC)
[10] = dose: 100.0 mg/kg/injection, schedule: Q04DX003 (ip), vehicle: saline
[11] = dose: 200.0 mg/kg/injection, schedule: Q04DX003 (ip), vehicle: saline
[12] = dose: 400.0 mg/kg/injection, schedule: Q04DX003 (ip), vehicle: saline
[13] = dose: 100.0 mg/kg/injection, schedule: Q01DX009 (ip), vehicle: Klucel (hydroxypropylcellulose) (HPC)
[14] = dose: 200.0 mg/kg/injection, schedule: Q01DX009 (ip), vehicle: Klucel (hydroxypropylcellulose) (HPC)
[15] = dose: 400.0 mg/kg/injection, schedule: Q01DX009 (ip), vehicle: Klucel (hydroxypropylcellulose) (HPC)
[16] = dose: 100.0 mg/kg/injection, schedule: Q01DX001 (ip), vehicle: Klucel (hydroxypropylcellulose) (HPC)
[17] = dose: 200.0 mg/kg/injection, schedule: Q01DX001 (ip), vehicle: Klucel (hydroxypropylcellulose) (HPC)
[18] = dose: 400.0 mg/kg/injection, schedule: Q01DX001 (ip), vehicle: Klucel (hydroxypropylcellulose) (HPC)

Measured: T/C

NC(=O)NC1CC(c2ccccc2)C(O)(c2ccccc2)C1 (stereo unspecified)
inactive: [1] 86 % of control | [2] 92 % of control | [3] 90 % of control

c1ccc(N2N=NC3C4CCC(C4)C32)cc1 (stereo unspecified)
inactive: [4] 108 % of control | [5] 98 % of control | [6] 104 % of control

O=C(NCc1cnccn1)c1ccco1
inactive: dose: 50.0 mg/kg/injection, schedule: Q01DX005 (ip), vehicle: saline 109 % of control | dose: 100.0 mg/kg/injection, schedule: Q01DX005 (ip), vehicle: saline 111 % of control | dose: 200.0 mg/kg/injection, schedule: Q01DX005 (ip), vehicle: saline 104 % of control

NC1CCCCC1.[I][Pb]([I])([I])[I]
inactive: dose: 100.0 mg/kg/injection, schedule: Q04DX003 (ip), vehicle: saline with Tween-80 106 % of control | dose: 200.0 mg/kg/injection, schedule: Q04DX003 (ip), vehicle: saline with Tween-80 95 % of control | dose: 400.0 mg/kg/injection, schedule: Q04DX003 (ip), vehicle: saline with Tween-80 96 % of control

CCOc1cccc2c1OC(CN1CCC3(CC1)C(=O)NCN3c1ccccc1)CO2 (stereo unspecified)
inactive: [7] 116 % of control | [8] 115 % of control | [9] 115 % of control

C[N+]1(C)N=C([O-])C=C1c1ccccc1
inactive: [10] 111 % of control | [11] 104 % of control | [12] 102 % of control

C=CCCCCCCCCC(=O)N/N=C/c1cccs1
inactive: [13] 95 % of control | [14] 100 % of control | [15] 105 % of control

C[N+](C)(C)c1cc2c(nn1)Nc1ccccc1S2
inactive: [1] 123 % of control | [2] 116 % of control

CC(=O)OCC1OCOC2C(C(N)=O)OCOC12 (stereo unspecified)
inactive: [2] 103 % of control | [3] 103 % of control

CC(=O)Nc1ccc2c(c1)C(=O)c1ccccc1-2
inactive: [10] 96 % of control | [11] 100 % of control | [12] 94 % of control

N#CCCN(C(=S)Nc1cccc(C(F)(F)F)c1)C1CCCCC1
inactive: [16] 96 % of control | [13] 107 % of control and 108 % of control | dose: 100.0 mg/kg/injection, schedule: Q04DX002 (ip), vehicle: Klucel (hydroxypropylcellulose) (HPC) 102 % of control and 104 % of control | [7] 98 % of control | [17] 90 % of control | [14] 101 % of control and 107 % of control | dose: 200.0 mg/kg/injection, schedule: Q04DX002 (ip), vehicle: Klucel (hydroxypropylcellulose) (HPC) 108 % of control and 114 % of control | [8] 97 % of control | [18] 98 % of control | [15] 96 % of control and 112 % of control | dose: 400.0 mg/kg/injection, schedule: Q04DX002 (ip), vehicle: Klucel (hydroxypropylcellulose) (HPC) 100 % of control and 101 % of control | [9] 97 % of control

Cc1ccccc1C(=O)C(=O)c1ccccc1C
inactive: [13] 95 % of control | [14] 106 % of control | [15] 93 % of control

CC[N+](C)(CC)CCCOC(=O)C(c1ccccc1)c1ccccc1
inactive: dose: 6.25 mg/kg/injection, schedule: Q04DX003 (ip), vehicle: saline 94 % of control | dose: 12.5 mg/kg/injection, schedule: Q04DX003 (ip), vehicle: saline 96 % of control | dose: 25.0 mg/kg/injection, schedule: Q04DX003 (ip), vehicle: saline 96 % of control

C1=COC(/C=N/Nc2nnc(N/N=C/C3CCC=CO3)c3ccccc23)CC1 (stereo unspecified)
inactive: dose: 5.0 mg/kg/injection, schedule: Q01DX001 (ip), vehicle: saline 98 % of control | dose: 10.0 mg/kg/injection, schedule: Q01DX001 (ip), vehicle: saline 111 % of control | dose: 20.0 mg/kg/injection, schedule: Q01DX001 (ip), vehicle: saline 96 % of control | dose: 40.0 mg/kg/injection, schedule: Q01DX001 (ip), vehicle: saline 102 % of control

CCOc1c(OC)c2c3c(c(-c4c(C)cc5c(C(C)C)c(OCC)c(OC)c6c5c4OC6OC)c(C)cc3c1C(C)C)OC2OC (stereo unspecified)
inactive: [16] 94 % of control | [17] 93 % of control | [18] 100 % of control

COC(=O)c1ccc(-c2cc(Cl)c3cc(S(=O)(=O)F)ccc3n2)cc1
inactive: [4] 94 % of control | [5] 100 % of control | [6] 95 % of control
